# Test results: the supplement of paper PMC10307832
# Compound: CN1CCN(CC1)C2=CC(=C(C=C2)NC3=NC(=C(S3)C(=O)C4=C(C=CC=C4Cl)Cl)N)OC [XMD14-99] + CCNC(=O)c1noc(-c2cc(C(C)C)c(O)cc2O)c1-c1ccc(CN2CCOCC2)cc1 [Luminespib] (partner 0.01 µM)
# Test: relative viability (nuclei count vs DMSO), 5 days (fraction); higher = more cells survive
# Conditions: first compound 0.08 µM
# Method in brief: (§1)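 Lung cancer cell lines were seeded in 1536-well plates and dosed by pin tool the next day, with either a single drug or a fixed anchor-drug dose combined with five library-drug doses (not always all listed) spaced in √10 steps. Five days later, one step fixed the cells and stained their nuclei (final 0.05% Triton X-100, 1% formaldehyde, 1 ug/ml Hoechst), and nuclei were counted on 4× images. Relative viability is the nuclei count in treated wells divided by the count in vehicle wells, and each value is the median of duplicate plates.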
row,Cell Line,relative viability
1,NCI-H460,0.0305
2,NCI-H727,0.383
3,NCI-H1734,0.175
4,NCI-H520,0.191
5,NCI-H2405,0.659
6,SW 1573,0.157
7,NCI-H1395,0.733
8,201T,1
9,NCI-H1915,0.745
10,HCC-827,0.492
11,LXF-289,0.586
12,NCI-H2347,0.337
13,NCI-H650,0.733
14,CAL-12T,0.387
15,NCI-H1651,0.939
16,EPLC-272H,0.658
17,NCI-H23,0.199

# Same assay, conditions: first compound 0.8 µM
row,Cell Line,relative viability
1,NCI-H460,0.037
2,NCI-H727,0.305
3,NCI-H1734,0.179
4,NCI-H520,0.219
5,NCI-H2405,0.767
6,SW 1573,0.365
7,NCI-H1395,0.685
8,201T,1.01
9,NCI-H1915,0.72
10,HCC-827,0.669
11,LXF-289,0.672
12,NCI-H2347,0.339
13,NCI-H650,0.873
14,CAL-12T,0.524
15,NCI-H1651,0.647
16,EPLC-272H,0.512
17,NCI-H23,0.247

# Same assay, conditions: first compound 2.53 µM
row,Cell Line,relative viability
1,NCI-H460,0.0277
2,NCI-H727,0.203
3,NCI-H1734,0.172
4,NCI-H520,0.217
5,NCI-H2405,0.861
6,SW 1573,0.236
7,NCI-H1395,0.699
8,201T,0.993
9,NCI-H1915,0.754
10,HCC-827,0.595
11,LXF-289,0.639
12,NCI-H2347,0.368
13,NCI-H650,0.79
14,CAL-12T,0.358
15,NCI-H1651,0.63
16,EPLC-272H,0.417
17,NCI-H23,0.214

# Same assay, conditions: first compound 8 µM
row,Cell Line,relative viability
1,NCI-H460,0.0243
2,NCI-H727,0.352
3,NCI-H1734,0.185
4,NCI-H520,0.223
5,NCI-H2405,0.475
6,SW 1573,0.214
7,NCI-H1395,0.555
8,201T,0.829
9,NCI-H1915,0.61
10,HCC-827,0.617
11,LXF-289,0.634
12,NCI-H2347,0.301
13,NCI-H650,0.722
14,CAL-12T,0.346
15,NCI-H1651,0.644
16,EPLC-272H,0.195
17,NCI-H23,0.202

# Compound: CN1CCN(CC1)C2=CC(=C(C=C2)NC3=NC(=C(S3)C(=O)C4=C(C=CC=C4Cl)Cl)N)OC [XMD14-99] + Cc1nc(Nc2ncc(C(=O)Nc3c(C)cccc3Cl)s2)cc(N2CCN(CCO)CC2)n1 [Dasatinib] (partner 0.075 µM)
# Test: as above
# Conditions: first compound 0.08 µM
# Method in brief: as §1
row,Cell Line,relative viability
1,NCI-H460,0.497
2,NCI-H727,0.322
3,NCI-H1734,0.394
4,NCI-H520,0.171
5,NCI-H2405,0.21
6,SW 1573,0.401
7,NCI-H1395,0.391
8,201T,0.593
9,NCI-H1915,0.28
10,HCC-827,0.322
11,LXF-289,0.238
12,NCI-H2347,0.284
13,NCI-H650,0.467
14,CAL-12T,0.34
15,NCI-H1651,0.565
16,EPLC-272H,0.323
17,NCI-H23,0.787

# Same assay, conditions: first compound 0.8 µM
row,Cell Line,relative viability
1,NCI-H460,0.545
2,NCI-H727,0.273
3,NCI-H1734,0.448
4,NCI-H520,0.21
5,NCI-H2405,0.204
6,SW 1573,0.42
7,NCI-H1395,0.425
8,201T,0.618
9,NCI-H1915,0.289
10,HCC-827,0.281
11,LXF-289,0.173
12,NCI-H2347,0.308
13,NCI-H650,0.422
14,CAL-12T,0.449
15,NCI-H1651,0.435
16,EPLC-272H,0.325
17,NCI-H23,0.777

# Same assay, conditions: first compound 2.53 µM
row,Cell Line,relative viability
1,NCI-H460,0.475
2,NCI-H727,0.309
3,NCI-H1734,0.481
4,NCI-H520,0.176
5,NCI-H2405,0.209
6,SW 1573,0.52
7,NCI-H1395,0.457
8,201T,0.546
9,NCI-H1915,0.293
10,HCC-827,0.309
11,LXF-289,0.208
12,NCI-H2347,0.352
13,NCI-H650,0.451
14,CAL-12T,0.356
15,NCI-H1651,0.368
16,EPLC-272H,0.402
17,NCI-H23,0.724

# Same assay, conditions: first compound 8 µM
row,Cell Line,relative viability
1,NCI-H460,0.475
2,NCI-H727,0.23
3,NCI-H1734,0.423
4,NCI-H520,0.169
5,NCI-H2405,0.173
6,SW 1573,0.325
7,NCI-H1395,0.363
8,201T,0.523
9,NCI-H1915,0.236
10,HCC-827,0.256
11,LXF-289,0.204
12,NCI-H2347,0.204
13,NCI-H650,0.356
14,CAL-12T,0.248
15,NCI-H1651,0.257
16,EPLC-272H,0.392
17,NCI-H23,0.636

# Compound: CN1CCN(CC1)C2=CC(=C(C=C2)NC3=NC(=C(S3)C(=O)C4=C(C=CC=C4Cl)Cl)N)OC [XMD14-99] + O=C(CCCCCCC(=O)Nc1ccccc1)NO [Vorinostat] (partner 1 µM)
# Test: as above
# Conditions: first compound 0.08 µM
# Method in brief: as §1
row,Cell Line,relative viability
1,NCI-H460,0.735
2,NCI-H727,1.25
3,NCI-H1734,0.803
4,NCI-H520,0.686
5,NCI-H2405,1
6,SW 1573,0.833
7,NCI-H1395,0.889
8,201T,0.962
9,NCI-H1915,0.519
10,HCC-827,0.929
11,LXF-289,0.754
12,NCI-H2347,0.533
13,NCI-H650,0.348
14,CAL-12T,0.685
15,NCI-H1651,0.614
16,EPLC-272H,0.476
17,NCI-H23,0.641

# Same assay, conditions: first compound 0.8 µM
row,Cell Line,relative viability
1,NCI-H460,0.693
2,NCI-H727,0.989
3,NCI-H1734,0.785
4,NCI-H520,0.635
5,NCI-H2405,1.07
6,SW 1573,0.765
7,NCI-H1395,0.891
8,201T,0.93
9,NCI-H1915,0.491
10,HCC-827,0.571
11,LXF-289,0.696
12,NCI-H2347,0.598
13,NCI-H650,0.455
14,CAL-12T,0.894
15,NCI-H1651,0.487
16,EPLC-272H,0.399
17,NCI-H23,0.581

# Same assay, conditions: first compound 2.53 µM
row,Cell Line,relative viability
1,NCI-H460,0.625
2,NCI-H727,1.06
3,NCI-H1734,0.799
4,NCI-H520,0.658
5,NCI-H2405,1
6,SW 1573,0.756
7,NCI-H1395,0.761
8,201T,0.948
9,NCI-H1915,0.486
10,HCC-827,0.74
11,LXF-289,0.726
12,NCI-H2347,0.455
13,NCI-H650,0.439
14,CAL-12T,0.627
15,NCI-H1651,0.534
16,EPLC-272H,0.401
17,NCI-H23,0.604

# Same assay, conditions: first compound 8 µM
row,Cell Line,relative viability
1,NCI-H460,0.49
2,NCI-H727,0.994
3,NCI-H1734,0.581
4,NCI-H520,0.454
5,NCI-H2405,0.514
6,SW 1573,0.631
7,NCI-H1395,0.527
8,201T,0.815
9,NCI-H1915,0.377
10,HCC-827,0.701
11,LXF-289,0.738
12,NCI-H2347,0.358
13,NCI-H650,0.411
14,CAL-12T,0.613
15,NCI-H1651,0.448
16,EPLC-272H,0.419
17,NCI-H23,0.464

# Compound: N[C@@H]1CCCN(c2c(/C=C3\SC(=O)NC3=O)cccc2-c2ccccc2)C1 [AZD1208] + Cc1cc(Nc2cc(N3CCN(C)CC3)nc(Sc3ccc(NC(=O)C4CC4)cc3)n2)n[nH]1 [Tozasertib] (partner 0.1 µM)
# Test: as above
# Conditions: first compound 0.08 µM
# Method in brief: as §1
row,Cell Line,relative viability
1,NCI-H460,0.461
2,NCI-H727,0.673
3,NCI-H1734,0.272
4,NCI-H520,0.432
5,NCI-H2405,0.726
6,SW 1573,0.22
7,NCI-H1395,0.803
8,201T,0.959
9,NCI-H1915,0.427
10,HCC-827,0.445
11,LXF-289,0.178
12,NCI-H2347,0.364
13,NCI-H650,0.732
14,CAL-12T,0.35
15,NCI-H1651,0.698
16,EPLC-272H,0.231
17,NCI-H23,0.4

# Same assay, conditions: first compound 0.253 µM
row,Cell Line,relative viability
1,NCI-H460,0.473
2,NCI-H727,0.636
3,NCI-H1734,0.26
4,NCI-H520,0.37
5,NCI-H2405,0.721
6,SW 1573,0.175
7,NCI-H1395,0.68
8,201T,0.934
9,NCI-H1915,0.378
10,HCC-827,0.409
11,LXF-289,0.158
12,NCI-H2347,0.523
13,NCI-H650,0.725
14,CAL-12T,0.355
15,NCI-H1651,0.661
16,EPLC-272H,0.351
17,NCI-H23,0.365

# Same assay, conditions: first compound 0.8 µM
row,Cell Line,relative viability
1,NCI-H460,0.474
2,NCI-H727,0.568
3,NCI-H1734,0.247
4,NCI-H520,0.422
5,NCI-H2405,0.693
6,SW 1573,0.178
7,NCI-H1395,0.677
8,201T,0.865
9,NCI-H1915,0.367
10,HCC-827,0.412
11,LXF-289,0.16
12,NCI-H2347,0.524
13,NCI-H650,0.67
14,CAL-12T,0.322
15,NCI-H1651,0.652
16,EPLC-272H,0.263
17,NCI-H23,0.336

# Same assay, conditions: first compound 2.53 µM
row,Cell Line,relative viability
1,NCI-H460,0.347
2,NCI-H727,0.566
3,NCI-H1734,0.219
4,NCI-H520,0.355
5,NCI-H2405,0.71
6,SW 1573,0.129
7,NCI-H1395,0.629
8,201T,0.803
9,NCI-H1915,0.249
10,HCC-827,0.385
11,LXF-289,0.131
12,NCI-H2347,0.687
13,NCI-H650,0.684
14,CAL-12T,0.323
15,NCI-H1651,0.529
16,EPLC-272H,0.149
17,NCI-H23,0.376

# Same assay, conditions: first compound 8 µM
row,Cell Line,relative viability
1,NCI-H460,0.389
2,NCI-H727,0.585
3,NCI-H1734,0.227
4,NCI-H520,0.331
5,NCI-H2405,0.635
6,SW 1573,0.149
7,NCI-H1395,0.571
8,201T,0.649
9,NCI-H1915,0.244
10,HCC-827,0.401
11,LXF-289,0.123
12,NCI-H2347,0.502
13,NCI-H650,0.66
14,CAL-12T,0.271
15,NCI-H1651,0.408
16,EPLC-272H,0.197
17,NCI-H23,0.272
